Drawing on a melting point compilation (Tetko et al.; mined from patent text by program, amines drawn as free bases though some values may be those of a salt), this text covers melting point for 89 molecules.

One may read the melting point as the temperature, or range, at which the solid turns liquid. On to `O=C(Nc1ccccc1)N1CCc2c(cnc3[nH]nc(Br)c23)C1`, for which the melting point lay in the range of 249 to 250 °C. In turn, `CCOC(=O)c1cn(-c2ccccc2)c2c(F)c(F)c(F)cc2c1=O` registered a melting point of 190 to 192 °C.

`CC(=NNc1ccc(C2=NNC(=O)CC2C)cc1)c1ccc(O)cc1O` (centres undefined) yielded a melting point of 259 to 261 °C.

As for `CS(=O)(=O)Nc1ccc(F)c(C(=O)C[N+](=O)[O-])c1`, the melting point fell in the range of 174 to 176 °C.

The molecule `Nc1cc[nH]c(=O)c1Cl` displayed a melting point of 264 to 267 °C. To `CC(C)C[C@@H](C(=O)O)N1C(=O)NC(C(F)(F)F)(C(F)(F)F)C1=O` belongs 154 to 156 °C; to `CN(NC(=O)c1c(Cl)cccc1Cl)S(=O)(=O)c1ccccc1`, 177 to 178 °C. `Cc1cc2c(cn1)c(C#N)c(-c1ncc(S(=O)(=O)NC(C)C)cn1)n2C1CCC1` showed a melting point of 242 to 243 °C.

With `CC(C)(C)c1cc(CCc2ccccc2NC(=O)N2CCN(C(=O)c3cccnc3)CC2)cc(C(C)(C)C)c1O`, the melting point fell in the range of 171 to 172 °C.

Molecule `CC(C)(C)OC(=O)N1C[C@H](Oc2nccc(NC(=O)c3ccccc3)n2)C[C@@H]1C(=O)OC(c1ccccc1)c1ccccc1` displayed a melting point of 145 to 147 °C. To `Cc1cn(C(C)C(=O)N(C)c2ccccc2)nc1-c1ccccc1` (centres undefined) belongs 112 to 114 °C. To `C[C@@H](n1cnc2c(Br)cc(Br)cc2c1=O)[C@](O)(Cn1cncn1)c1ccc(F)cc1F` belongs 134 to 135 °C; to `Cc1cc(Br)c2ncn([C@H](C)[C@](O)(Cn3cncn3)c3ccc(F)cc3F)c(=O)c2c1`, 116 to 123 °C. To `O=C(O)C1Cc2ccc(OCc3ccccc3)cc2O1` (centres undefined) belongs 118 to 119 °C. The molecule `COCC1CN(c2ccc(C3CCCCC3)c([N+](=O)[O-])c2)C(=O)O1` (racemic) showed a melting point of 105 to 106 °C.

Take `O=c1oc(OCc2ccccc2)nc2ccccc12`: the melting point lay within 152 to 154 °C. Regarding `COc1cc(O)c(C(=O)c2ccccc2)cc1CN(C)C`, the melting point stood at 69 °C. For the molecule `Cc1cc(SC2=C(O)C[C@@](CCc3cccc(O)c3)(C3CCCC3)OC2=O)c(C(C)(C)C)cc1CO`, the melting point was 128 to 132 °C.

`FC(F)(F)c1snc(-c2c(Cl)cc(Cl)c3nc(C4CC4)oc23)c1Cl` yielded a melting point of 110 to 111 °C. `COc1cc(-c2cc(C(F)(F)F)nn2-c2ccc(S(C)(=O)=O)c(F)c2)ccc1-c1cscn1` had a melting point of 155 to 157 °C.

`O=C(O)CO[C@@H]1COc2nc([N+](=O)[O-])cn2C1`: the melting point fell in the range of 178 to 179 °C. As for `Nc1ncnc2c1ncn2Cc1oc2ccc(F)cc2c(=O)c1-c1cccc(F)c1`, the figure is 180 to 183 °C; as for `CCc1ccc(Cc2cc(C(=O)OC)ccc2O)cc1`, 134 to 137 °C. As for `CNC(=O)Nc1ccc(Oc2ccc3sncc3c2)c(C(F)(F)F)c1`, the melting point amounted to 138 °C. As for `O=C(Nc1ccc2ccc(Cl)nc2n1)c1ccccn1`, the figure is 319 °C. In turn, `CC(C)(C)c1cc2c(c(C(C)(C)C)c1O)CCS2` registered a melting point of 82 °C. As to `S=c1[nH]ccn1C1Cc2ccccc2C1`, the melting point was 210 to 211 °C. To `CCOC(=O)c1cn(C2CC2)c2c(F)c(F)c(F)cc2c1=O` belongs 167 to 168 °C; to `COc1ccc(-c2cc(CN3CCNCC3)c(=O)n(CC3CC3)n2)cc1F`, 112 to 118 °C. The molecule `COC(=O)c1ccccc1-c1cc(-c2ccc(OC)cc2)on1` displayed a melting point of 96.5 to 98 °C. Molecule `Cc1c(-c2ccccc2)sc2c1c(=O)c(C(=O)O)cn2Cc1c(F)cccc1F` had a melting point of 286 to 289 °C. To `Nc1nc(Cl)nc(C2CC2)n1` belongs 139 to 142 °C; to `N#Cc1ccc(OCc2ccsc2)cc1OC(C(=O)O)c1ccccc1F` (racemic), 159 to 161 °C; to `Clc1cc(-n2cncn2)ncn1`, 93 to 97 °C. Molecule `CCOC(=O)c1cccc2c1CCCC2C(N)=O` (centres undefined) returned a melting point of 160 to 162 °C. `NC1=CN(Cc2ccc(Cl)cc2Cl)CN=C1` gave a melting point of 104 to 105 °C. As for `Cc1ccc(Sc2ccc(N)cc2)cc1`, the figure is 76 °C; as for `Cc1ccc(OC2=C(Oc3ccc([N+](=O)[O-])cc3)C(F)(F)C(F)(F)C2(F)F)cc1`, 72 to 76 °C; as for `CCOC(=O)c1cnc(O)c2c(C)n[nH]c12`, 310 °C. To `CCOc1ccc(-c2[nH]c3ccc(OCc4ccccc4)cc3c2C)cc1` belongs 143 to 145 °C; to `CC#CCOc1ccc(S(=O)(=O)N(C)C(CCCSc2ccc(Cl)cc2)C(=O)NO)cc1` (centres undefined), 144 to 146 °C; to `O=C(CN1CCN(C(=O)Nc2ccc(C(F)(F)F)cc2)CC1)N1CCC2(CC1)Cn1cc([N+](=O)[O-])nc1O2`, 153 to 155 °C. Consider `COC(=O)C=Cc1ccc(OC)cc1`, for which the melting point fell in the range of 85 to 86 °C. `COC(=O)c1cc(N)c(N2CCCCC2)c(S(C)(=O)=O)c1` came in with a melting point of 178 to 179 °C. As for `CSc1ncc(S(=O)(=O)NC(=O)NC(C)C)c(Nc2cccc(C)c2)n1`, the figure is 160 °C; as for `CC(=O)SCC(C(=O)NCCc1ccncc1)C(F)(F)F` (centres undefined), 87 to 89 °C; as for `O=[N+]([O-])c1c(O)c(O)cc2c1C(=NO)CC2`, 200 to 201 °C. As for `CN(C)Cc1cccc2nc3n(c12)CCCN3c1ccc(Cl)cc1Cl`, the figure is 158 to 159 °C; as for `NC(=O)N(O)Cc1ccc(C(O)C#Cc2cccc(Cl)c2)cc1` (centres undefined), 118 to 119 °C; as for `COc1ccc(-n2cnc3ccc(-c4nnc(CCc5cccc(C#N)c5)o4)cc32)cc1`, 125 to 127 °C.

Consider `CCc1c(Cl)c(CC)c(-c2c(O)c(C)nn(C)c2=O)c(CC)c1Cl`, for which the melting point lay in the range of 266 to 267 °C. As for `COc1ccc(C(CC(=O)Nc2cc(C(N)=O)ccc2C(C)(C)C)CC(C)C)c(OC)c1` (centres undefined), the figure is 194 to 196 °C; as for `Cc1nc(-c2ccc(C(F)(F)F)cc2)sc1C(=O)N[C@H](C)[C@](O)(Cn1cncn1)c1ccc(F)cc1F`, 79 to 82 °C. Molecule `CCCCCCCCCCCCCCCCCCSC(=O)Nc1ccccc1` gave a melting point of 85.5 to 86.5 °C. As for `CS(=O)(=O)c1ccc(-c2sc(-c3ccccc3Cl)nc2-c2ccccc2F)cc1`, the figure is 163 to 166 °C; as for `C=CS(=O)(=O)CC(COCCCCCCCCCCCCCCCCCC)OC` (centres undefined), 47 to 49 °C; as for `CCC(CC(N)=O)c1cccc2nc3n(c12)CCCN3c1ccc(Cl)cc1Cl` (centres undefined), 132 to 133 °C.

As for `Nc1ccc(Sc2ccc(Cl)cc2)nc1`, the melting point was in the range of 55 to 57 °C. Molecule `Fc1cc(Cl)c(OCC2=CCCOC2)cc1-n1nc2c(c1Cl)CCCC2` showed a melting point of 90 to 92 °C. `COc1ccc(C(C#N)Sc2ccccn2)cc1OC` (centres undefined) returned a melting point of 108 to 110 °C.

As to `Cc1cccc2cc3c(=O)n(CCc4cn(C(=O)NCCN(C)C)c5ccccc45)cc(C(=O)NCCN(C)C)c3nc12`, the melting point was in the range of 182 to 185 °C. On to `CCCCCCCCCOc1cc(C(N)=O)ccn1`, for which the melting point fell in the range of 108 to 110 °C. To `O=C(O)[C@H](Cc1ccc(C(F)(F)F)cc1)[C@@H](O)c1ccccc1F` (racemic) belongs 122 to 123 °C; to `CCCNC(=O)c1cnc2cc(C)ccn2c1=O`, 194 to 196 °C.

As to `CC1(C)C2CC[C@@]1(N1CCCCC1)[C@H](O)C2`, the melting point fell in the range of 88.5 to 89.5 °C. To `NC(=O)CC(CC(N)=O)c1cccc(Cl)c1Cl` belongs 194 to 196 °C. The molecule `CC(C)c1ccc(CCCN(C)[C@H]2CC[C@H](c3ccc4[nH]c(=O)oc4c3)CC2)cc1` displayed a melting point of 179 to 181 °C.

As for `O=C(c1cc(Br)cc(Br)c1O)c1cc(Br)cc(Br)c1O`, the melting point was 179 °C. Regarding `C#CCCn1nnc2cc3c(=O)n(C(C)Cn4ncnn4)nnc3cc2c1=O` (centres undefined), the melting point was 185 to 188 °C. To `NC(=O)C1(Nc2ccc(I)cc2)CCCC1` belongs 148 °C.

On to `COC(=O)CCNc1ccccc1CNC(=O)C1Cc2ccccc2N1S(=O)(=O)c1ccc(-c2cccc(C(F)(F)F)c2)cc1` (centres undefined), for which the melting point came to 60 °C.

Take `Nc1nc(O)cc(NC2CC2)n1`: the melting point was 229 °C. To `Brc1ccc(N2CCN(Cc3c[nH]c4ncccc34)CC2)cc1` belongs 234 to 238 °C; to `CC(C)(C)NCC(O)c1cc(Cl)c(NC(=O)NC(C)(C)C)c(Cl)c1` (centres undefined), 167 to 169 °C; to `N#CN=C(Nc1cccnc1)NC(NC(=O)c1cccc(Cl)c1)C(F)(F)C(F)(F)F` (centres undefined), 183 to 185 °C. As for `O=C(CS(=O)(=O)c1ccccc1)NNC(=O)N1Cc2ccccc2Oc2ccc(Cl)cc21`, the figure is 180 to 183 °C; as for `CCOC(=O)N1CCC(O)(c2cccs2)CC1`, 242 °C; as for `CCOC(=O)c1c(Cn2cnnc2)nc2sc(C)c(C)c2c1-c1ccc2c(c1)OCO2`, 96 to 98 °C. As for `NCc1nc2ccccc2[nH]1`, the figure is 81 to 83 °C. For `CS(=O)(=O)NC1(c2ccc(I)cc2)CC1`, the melting point fell in the range of 101 to 102 °C. To `CCOC(=O)C1CC(=O)c2cc(C(C)(C)C)cc(C(C)(C)C)c2O1` (centres undefined) belongs 61 to 63 °C. In turn, `CCCc1c(C(=O)C(C)C)c2ccc(C(=O)O)cc2n1Cc1ccccc1C` returned a melting point of 186 to 188 °C.

As for `CC(C)NC(=O)NCCc1c2c3c(nc(N)c2nn1C)CCCC3`, the melting point fell in the range of 237 to 238 °C. For the molecule `CN(C)CC1(CO)C(O)C(O)C(O)CN1C` (centres undefined), the melting point is 76 °C.

Turning to `COc1cc(Nc2c(C#N)cnc3cc(/C=C/n4nccn4)sc23)c(Cl)cc1Cl`, the melting point lay in the range of 315 to 316 °C.

The molecule `COC(=O)C1=C(C)NC2=C(C(=O)OC2C)C1c1ccccc1Cl` (centres undefined) had a melting point of 228 to 233 °C. Consider `CC(C)(C)OC(=O)NCc1nc(C(=O)NNC(=O)OCc2ccccc2)cc(OCc2ccccc2)c1OCc1ccccc1`, for which the melting point fell in the range of 128 to 129 °C. To `COc1ccc2c(C3NCCc4ccccc43)c(O)ccc2c1` (centres undefined) belongs 148 to 151 °C.

Turning to `CC(C)(C)N1C(=O)c2nc(Cl)cc(N)c2C1=O`, the melting point lay within 215 to 220 °C.
